Activity calls are given as the source filed them. The calls are words filed in the database; no cut-off is given here.
Key:
Cathepsin K = target: T1, Cathepsin K (Homo sapiens, UniProt P43235); experiment: Inhibition of human cathepsin K by fluorescence assay
T1 sequence (P43235 whole entry): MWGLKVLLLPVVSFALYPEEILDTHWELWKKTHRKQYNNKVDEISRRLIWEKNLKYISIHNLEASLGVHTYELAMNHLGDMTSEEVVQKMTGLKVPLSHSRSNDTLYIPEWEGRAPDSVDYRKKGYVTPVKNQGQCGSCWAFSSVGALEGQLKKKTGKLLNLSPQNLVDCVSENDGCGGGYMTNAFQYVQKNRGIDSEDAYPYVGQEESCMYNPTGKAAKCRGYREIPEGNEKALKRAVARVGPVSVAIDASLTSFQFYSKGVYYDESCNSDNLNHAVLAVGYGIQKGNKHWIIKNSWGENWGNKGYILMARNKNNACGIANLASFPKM

Cathepsin S [1] = target: T2, Cathepsin S (Homo sapiens, UniProt P25774); experiment: Inhibition of human cathepsin S by fluorescence assay
T2 sequence (P25774 whole entry): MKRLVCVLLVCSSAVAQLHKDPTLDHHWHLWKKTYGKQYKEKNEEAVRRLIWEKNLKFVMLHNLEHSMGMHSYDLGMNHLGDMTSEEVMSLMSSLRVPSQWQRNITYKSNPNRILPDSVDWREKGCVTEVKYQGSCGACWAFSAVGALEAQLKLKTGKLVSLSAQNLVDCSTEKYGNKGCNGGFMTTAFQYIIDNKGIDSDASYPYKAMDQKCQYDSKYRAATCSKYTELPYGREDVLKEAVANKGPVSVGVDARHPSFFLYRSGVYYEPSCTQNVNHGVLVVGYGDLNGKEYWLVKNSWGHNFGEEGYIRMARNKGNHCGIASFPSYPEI

[2] = target: Cathepsin B (Homo sapiens) (UniProt P07858); experiment: Inhibition of human cathepsin B by fluorescence assay
[3] = target: Procathepsin L (Homo sapiens) (UniProt P07711); experiment: Inhibition of human cathepsin L by fluorescence assay
Chain of Procathepsin L (Homo sapiens) (P07711 114-333 limits assumed): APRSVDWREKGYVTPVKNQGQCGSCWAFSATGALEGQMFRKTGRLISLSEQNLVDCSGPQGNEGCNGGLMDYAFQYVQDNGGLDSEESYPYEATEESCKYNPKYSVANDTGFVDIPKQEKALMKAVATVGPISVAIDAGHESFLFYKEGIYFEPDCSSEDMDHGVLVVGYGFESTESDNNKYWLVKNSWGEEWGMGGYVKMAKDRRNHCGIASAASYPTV

[4] = Oral bioavailability in Wistar rat at 10 mg/kg; format: ADME, organism-based; details: in vivo
[5] = Volume of distribution at steady state in Wistar rat at 2 mg/kg, iv and 10 mg/kg, po; format: ADME, organism-based; details: in vivo, read-out: Vdss
Cathepsin S [6] = target: T2, Cathepsin S; experiment: Inhibition of cathepsin S-mediated proteolytic cleavage of MHC2 associated invariant chain in human JY cells assessed as accumulation of lip10 by Western blot analysis; format: cell-based
[7] = Plasma clearance in Wistar rat at 2 mg/kg, iv and 10 mg/kg, po; format: ADME, organism-based
Cathepsin S [8] = target: T3, Cathepsin S (Mus musculus, UniProt O70370); experiment: Inhibition of mouse cathepsin S by fluorescence assay
T3 sequence (O70370 whole entry): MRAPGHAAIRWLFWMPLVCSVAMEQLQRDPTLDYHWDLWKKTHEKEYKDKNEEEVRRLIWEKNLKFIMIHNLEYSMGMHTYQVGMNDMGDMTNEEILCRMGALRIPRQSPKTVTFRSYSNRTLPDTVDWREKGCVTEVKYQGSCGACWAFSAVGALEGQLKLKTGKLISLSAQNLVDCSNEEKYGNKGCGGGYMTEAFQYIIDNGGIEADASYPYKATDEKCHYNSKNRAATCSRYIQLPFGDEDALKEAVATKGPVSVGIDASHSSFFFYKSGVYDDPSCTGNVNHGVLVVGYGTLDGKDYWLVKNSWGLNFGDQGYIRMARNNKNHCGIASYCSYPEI

Cathepsin S [9] = target: T3, Cathepsin S; experiment: Inhibition of cathepsin S-mediated proteolytic cleavage of MHC2 associated invariant chain in mouse splenocytes assessed as accumulation of lip10 by Western blot analysis; format: cell-based
[10] = Ratio of drug level in spleen to plasma in C57/BL6 mouse at 0.3 mg/kg, po; format: ADME, organism-based, C57Bl/6; parameters: dose 0.3 mg/kg, route oral
[11] = Chemical stability of the compound assessed as half life at 1.25 mM at pH 7.5 by nitrile war-head stability assay in presence of GSH; format: physicochemical
Mus musculus = experiment: Induction of Lip10 accumulation in C57/BL6 mouse spleen at 0.3 mg/kg, po after 4 hrs by Western blot analysis; format: functional, organism-based; parameters: dose 0.3 mg/kg; details: C57Bl/6
[12] = Chemical stability of the compound assessed as half life at 1.24 mM at pH 7.5 by nitrile war-head stability assay in presence of GSH; format: physicochemical
[13] = Chemical stability of the compound assessed as half life at 1.15 mM at pH 7.5 by nitrile war-head stability assay in presence of GSH; format: physicochemical

| Structure (SMILES) | IC50 (Cathepsin K) [µM] | IC50 (Cathepsin S [1]) [µM] | inhibition [2] | inhibition [3] | further results |
| --- | --- | --- | --- | --- | --- |
| Cn1ccc2c(C#N)nc(-c3ccc(OCCN4CCCC4=O)c(C(F)(F)F)c3)cc21 | > 10 | 0.661 |  |  |  |
| N#Cc1nc(-c2ccc(OCCCO)c(C(F)(F)F)c2)cc2[nH]cnc12 | 2.69 | 0.063 | inactive | inactive |  |
| CN(C)CCCOc1ccc(-c2cc3c(ncn3C)c(C#N)n2)cc1C(F)(F)F | 0.776 | 0.041 | inactive | inactive | bioavailability [4]: 58%; Vd [5]: 58 L/kg; IC50 (Cathepsin S [6]): 0.084 µM; clearance [7]: 0.6 L/h/kg; IC50 (Cathepsin S [8]): 0.0026 µM |
| CCOc1ccc(-c2cc3c(ncn3CCN(C)C)c(C#N)n2)cc1C(F)(F)F | 0.447 | 0.032 |  |  | IC50 (Cathepsin S [6]): 0.854 µM |
| CCOc1ccc(-c2cc3c(ncn3CCCN3CCOCC3)c(C#N)n2)cc1C(F)(F)F | 0.513 | 0.035 |  |  |  |
| Cn1cnc2c(C#N)nc(-c3ccc(CCCO)c(C(F)(F)F)c3)cc21 | 1.07 | 0.024 | inactive | inactive |  |
| Cn1cnc2c(C#N)nc(-c3ccc(CCO)c(C(F)(F)F)c3)cc21 | 3.16 | 0.071 | inactive | inactive |  |
| CCN1CCN(CCCOc2ccc(-c3cc4c(ncn4C)c(C#N)n3)cc2C(F)(F)F)CC1 | 0.331 | 0.0072 | inactive | inactive | bioavailability [4]: 9%; Vd [5]: 2 L/kg; IC50 (Cathepsin S [6]): 0.063 µM; IC50 (Cathepsin S [9]): 0.0065 µM; clearance [7]: 1.68 L/h/kg; IC50 (Cathepsin S [8]): 0.0026 µM; Kp [10]: 50; half-life at 1250 µM [11]: > 100 h; Activity (Mus musculus): Active |
| CCOc1ccc(-c2cc3c(ncn3CCCN(C)C)c(C#N)n2)cc1C(F)(F)F | 0.27 | 0.027 |  |  | IC50 (Cathepsin S [6]): 0.26 µM |
| Cn1cnc2c(C#N)nc(-c3ccc(OCc4cccnc4)c(C(F)(F)F)c3)cc21 | > 10 | 0.0126 | inactive | inactive |  |
| CN1CCN(CCCOc2ccc(-c3cccc(C#N)n3)cc2C(F)(F)F)CC1 |  |  |  |  | half-life at 1240 µM [12]: > 100 h |
| CCOc1ccc(-c2cc3c(ncn3C)c(C#N)n2)cc1C(F)(F)F | 1.26 | 0.04 | inactive | inactive |  |
| Cc1cccc(CCOc2ccc(-c3cc4c(ncn4C)c(C#N)n3)cc2C(F)(F)F)n1 | 2.04 | 0.011 | inactive | inactive | IC50 (Cathepsin S [6]): 0.267 µM |
| CC(=O)Nc1ccc(-c2cc3[nH]cnc3c(C#N)n2)cc1C(F)(F)F | > 10 | 3.24 | inactive | inactive |  |
| Cn1cnc2c(C#N)nc(-c3ccc(OCc4ccccn4)c(C(F)(F)F)c3)cc21 | 2.29 | 0.02 | inactive | inactive | bioavailability [4]: 54%; Vd [5]: 0.7 L/kg; IC50 (Cathepsin S [6]): 0.853 µM; clearance [7]: 19.6 L/h/kg; IC50 (Cathepsin S [8]): 0.0025 µM |
| N#Cc1nc(-c2ccc(OCc3ccccc3)c(C(F)(F)F)c2)cc2[nH]cnc12 | > 10 | 0.676 | inactive | inactive |  |
| COc1ccc(-c2cc3[nH]cnc3c(C#N)n2)cc1C(F)(F)F | 8.51 | 0.339 | inactive | inactive |  |
| Cn1cnc2c(C#N)nc(-c3ccc(OC4CCNCC4)c(C(F)(F)F)c3)cc21 | 0.891 | 0.316 | inactive | inactive |  |
| CN1CCN(CCCOc2ccc(-c3cc4c(ncn4C)c(C#N)n3)cc2C(F)(F)F)CC1 | 0.468 |  | inactive | inactive | IC50 (Cathepsin S [6]): 0.106 µM |

| Structure (SMILES) | IC50 (Cathepsin K) [µM] | IC50 (Cathepsin S [1]) [µM] | inhibition [2] | inhibition [3] | further results |
| --- | --- | --- | --- | --- | --- |
| Cn1cnc2c(C#N)nc(-c3ccc(OCCCN4CCCC4)c(C(F)(F)F)c3)cc21 | 0.871 | 0.028 | inactive | inactive | IC50 (Cathepsin S [6]): 0.089 µM |
| N#Cc1nc(-c2cccc(C(F)(F)F)c2)cc2nc[nH]c12 | 2 | 1.05 |  |  |  |
| CCNc1ccc(-c2cc3[nH]cnc3c(C#N)n2)cc1C(F)(F)F | > 10 | 0.105 | inactive | inactive |  |
| CCOc1ccc(-c2cc3[nH]cnc3c(C#N)n2)cc1C(F)(F)F | 8.31 | 0.025 | inactive | inactive |  |
| Cn1cnc2c(C#N)nc(-c3ccc(OCCN4CCCC4=O)c(C(F)(F)F)c3)cc21 | 2.51 | 0.0078 | inactive | inactive | IC50 (Cathepsin S [6]): 1.42 µM |
| Cn1cnc2c(C#N)nc(-c3ccc(OCC4CCNCC4)c(C(F)(F)F)c3)cc21 | 0.24 | 0.0141 | inactive | inactive |  |
| CCOc1ccc(-c2cccc(C#N)n2)cc1C(F)(F)F |  |  | inactive | inactive |  |
| Cn1cnc2c(C#N)nc(-c3ccc(OCc4ccncc4)c(C(F)(F)F)c3)cc21 | > 10 | 0.01 | inactive | inactive |  |
| N#Cc1nc(-c2cccc(C(F)(F)F)c2)cc2[nH]cnc12 |  |  | inactive | inactive |  |
| CN1CCN(CCCOc2ccc(-c3ccnc(C#N)n3)cc2C(F)(F)F)CC1 |  |  |  |  | half-life at 1150 µM [13]: < 0.25 h |
| N#Cc1nc(-c2ccc(OCCO)c(C(F)(F)F)c2)cc2[nH]cnc12 | 2.82 | 0.145 | inactive | inactive |  |
| Cn1cnc2c(C#N)nc(-c3ccc(OCCN4CCNC(=O)C4)c(C(F)(F)F)c3)cc21 | 1.17 | 0.0078 | inactive | inactive |  |
| CN(C)CCOc1ccc(-c2cc3c(ncn3C)c(C#N)n2)cc1C(F)(F)F | 5.89 | 0.209 | inactive | inactive |  |
| CCOc1ccc(-c2nc(C#N)c3nc[nH]c3n2)cc1C(F)(F)F |  |  | inactive | inactive |  |
| CCCOc1ccc(-c2cc3[nH]cnc3c(C#N)n2)cc1C(F)(F)F |  |  | inactive | inactive |  |
| CCCOc1ccc(-c2cc3nc[nH]c3c(C#N)n2)cc1C(F)(F)F | 7.76 | 0.2 |  |  |  |
| Cn1cnc2c(C#N)nc(-c3ccc(OCCC4CCNCC4)c(C(F)(F)F)c3)cc21 | 0.178 | 0.0083 | inactive | inactive | IC50 (Cathepsin S [6]): 0.009 µM |
| CCOc1ccc(-c2cc3c(ncn3CCN3CCOCC3)c(C#N)n2)cc1C(F)(F)F | 1.66 | 0.037 |  |  | IC50 (Cathepsin S [6]): 10 µM |

From ChEMBL document CHEMBL1208745, “6-Phenyl-1H-imidazo[4,5-c]pyridine-4-carbonitrile as cathepsin S inhibitors” (Bioorg Med Chem Lett, 2010)
